The molecules below were run on German cockroaches. Conditions: 2 μl per insect; evaluated after 24 hours; alone or with 10% solution (ETCH) of Tomadol 23-1.
Experimental: Dose-response evaluations were performed on 1-4 week old adults SJC Strain (S.C. Johnson & Son, Racine, Wis.) German cockroaches, Blattella germanica, L. Insects were individually transferred using a 7″ (18 cm) […] forceps to 100×20 mm polystyrene Petri dishes. The inside edge of the dishes was lightly coated with a layer of (1:3) mineral oil+petroleum jelly to minimize insect escape. Approximately 10 cockroaches were transferred to each dish and then anesthetized with a 15-25 second exposure to CO2. Anesthetized cockroaches were positioned with their ventral side up in the bottom of the Petri dish. A 2 μl drop of test solution was applied to the area between the meso- and methathoracic legs using a Rainen L-10 10 μl pipette. Control cockroaches were treated with a 2 μl drop of the solvent, 100% ethyl alcohol.
Structure—activity tests used to calculate LT50 values were scored approximately every 30 minutes for the first two hours following treatment followed by approximate hourly readings to hour 8 with a final reading at 24 hours. Cockroaches were scored as either alive (dorsal side up, active movement when abdomen prodded) or moribund/dead (dorsal side up and no movement when abdomen prodded or ventral side up and insect unable to right itself).

Going from `COP(=O)(NC(C)=O)SC` (centres unmarked) [acephate] to `CNC(=O)Oc1ccccc1OC(C)C` [propoxur], the “LC50 (%) [95% CI]” value rises from 0.0051% to 0.0101%.

Going from `CCOCn1c(-c2ccc(Cl)cc2)c(C#N)c(Br)c1C(F)(F)F` [chlorfenapyr] to `CC1(C)C(C=C(Cl)Cl)C1C(=O)OC(C#N)c1ccc(F)c(Oc2ccccc2)c1` (centres unmarked) [cyfluthrin], the “LC50 (%) [95% CI]” value falls from 0.4062% to 0.0050%.

Going from `CN/C(=N\[N+](=O)[O-])NCc1cnc(Cl)s1` [clothianidin] to `CN1COCN(Cc2cnc(Cl)s2)/C1=N\[N+](=O)[O-]` [thiamethoxam], the “LC50 (%) [95% CI]” value rises from 0.0020% to 0.0038%.

In the case of `O=[N+]([O-])NC1=NCCN1Cc1ccc(Cl)nc1` [imidacloprid], the “LC50 (%) [95% CI]” value is reported as 0.0219%.

Same assay, conditions: in words

For `COP(=O)(NC(C)=O)SC` (centres unmarked) [acephate], the “synergy of insecticidal activity by Tomadol 23-1 (reduced the LC50)” value was “did not synergize”.
